Source: patent US20210388015A1, “GLUCOPYRANOSE DERIVATIVES USEFUL AS SGLT2 INHIBITORS” (Janssen Pharmaceutica NV, priority 2018, published 2021)
Where a name gives a salt, the structure may show the parent alone.

Target: T1, human SGLT1 (Homo sapiens, UniProt P13866)
T1 construct: expressed in transfected cells; host or cells: CHO-K1
T1 sequence (P13866 1-664): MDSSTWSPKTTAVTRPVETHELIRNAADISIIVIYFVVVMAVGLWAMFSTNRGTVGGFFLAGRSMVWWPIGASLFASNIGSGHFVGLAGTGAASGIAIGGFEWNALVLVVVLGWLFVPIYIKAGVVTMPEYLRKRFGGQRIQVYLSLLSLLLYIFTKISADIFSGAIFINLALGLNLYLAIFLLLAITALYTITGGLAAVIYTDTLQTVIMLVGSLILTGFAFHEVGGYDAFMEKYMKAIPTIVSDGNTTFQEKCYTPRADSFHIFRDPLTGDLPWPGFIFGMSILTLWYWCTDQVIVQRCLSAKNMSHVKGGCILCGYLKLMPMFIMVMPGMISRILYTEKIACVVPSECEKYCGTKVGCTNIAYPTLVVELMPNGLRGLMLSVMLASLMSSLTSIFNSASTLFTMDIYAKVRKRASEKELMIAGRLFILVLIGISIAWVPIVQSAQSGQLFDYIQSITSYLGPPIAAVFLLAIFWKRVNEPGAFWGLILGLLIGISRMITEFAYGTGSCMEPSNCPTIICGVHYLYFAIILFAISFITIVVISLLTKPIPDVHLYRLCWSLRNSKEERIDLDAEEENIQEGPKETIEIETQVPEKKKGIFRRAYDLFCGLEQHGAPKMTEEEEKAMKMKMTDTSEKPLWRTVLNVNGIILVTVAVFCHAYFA
Assay: SGLT1 inhibition assay, 14C-AMG uptake in CHO-K1 cells stably expressing human SGLT1
Format: cell-based
Conditions: CHO-K1, CHO-K1 cells, 1 μM test compound; read-out: CHO-K1 Cells SGLT1 % Inh @1 μM
Description: (§1) The cells were incubated for 24 hours. […] Plates were counted in a TopCount (Packard, Meriden, Conn.). Each experiment was repeated at least twice.
(§2) Results are reported as the %-inhibition or IC50 value.

First: COCCOCCOCCOCCOc1ccc(Cc2cc([C@@H]3O[C@H](CO)[C@@H](O)[C@H](O)[C@H]3O)ccc2Cl)cc1 [Compound 1]
Second: C[N+]1(CCOCCOc2ccc(Cc3cc([C@@H]4O[C@H](CO)[C@@H](O)[C@H](O)[C@H]4O)ccc3Cl)cc2)CCCC1 [Compound 7]
The inhibition at 1 µM of the first is lower: 14.5% for the first, 17.5% for the second.

Going from `O=S(=O)(O)CCCOc1ccc(Cc2cc([C@@H]3O[C@H](CO)[C@@H](O)[C@H](O)[C@H]3O)ccc2Cl)cc1` [Compound 2, 3-(4-(2-chloro-5-((2S,3R,4R,5S,6R)-3,4,5-trihydroxy-6-(hydroxymethyl)tetrahydro-2H-pyran-2-yl)benzyl)phenoxy)propane-1-sulfonic acid] to `C[N+]1(CCCCCOc2ccc(Cc3cc([C@@H]4O[C@H](CO)[C@@H](O)[C@H](O)[C@H]4O)ccc3Cl)cc2)CCCC1` [Compound 6, 1-(5-(4-(2-chloro-5-((2S,3R,4R,5S,6R)-3,4,5-trihydroxy-6-(hydroxymethyl)tetrahydro-2H-pyran-2-yl)benzyl)phenoxy)pentyl)-1-methylpyrrolidin-1-ium trifluoroacetate], the inhibition at 1 µM rises from 20% to 43.1%.

Same assay, conditions: CHO-K1, read-out: CHO-K1 Cells SGLT1 % Inh @1 μM

`OC[C@H]1O[C@@H](c2ccc(Cl)c(Cc3ccc(OCc4ccc(COc5ccc(Cc6cc([C@@H]7O[C@H](CO)[C@@H](O)[C@H](O)[C@H]7O)ccc6Cl)cc5)nc4)cc3)c2)[C@H](O)[C@@H](O)[C@@H]1O` [Compound 14, (2R,2′R,3S,3′S,4R,4′R,5R,5′R,6S,6′S)-6,6′-(((((pyridine-2,5-diylbis(methylene))bis(oxy))bis(4,1-phenylene))bis(methylene))bis(4-chloro-3,1-phenylene))bis(2-(hydroxymethyl)tetrahydro-2H-pyran-3,4,5-triol) trifluoroacetate] showed an inhibition at 1 µM of 19%.

Same assay, conditions: CHO-K1 cells; IC50 printed in the % Inh column

Work on `OC[C@H]1O[C@@H](c2ccc(Cl)c(Cc3ccc(OCCOCCOc4ccc(Cc5cc([C@@H]6O[C@H](CO)[C@@H](O)[C@H](O)[C@H]6O)ccc5Cl)cc4)cc3)c2)[C@H](O)[C@@H](O)[C@@H]1O` [Compound 10, (2R,2′R,3S,3′S,4R,4′R,5R,5′R,6S,6′S)-6,6′-(((((oxybis(ethane-2,1-diyl))bis(oxy))bis(4,1-phenylene))bis(methylene))bis(4-chloro-3,1-phenylene))bis(2-(hydroxymethyl)tetrahydro-2H-pyran-3,4,5-triol)] yielded an IC50 of 1490 nM.

Target: T2, human SGLT2 (Homo sapiens, UniProt P31639)
T2 construct: expressed in transfected cells; host or cells: CHO-K1
T2 sequence (P31639 1-672): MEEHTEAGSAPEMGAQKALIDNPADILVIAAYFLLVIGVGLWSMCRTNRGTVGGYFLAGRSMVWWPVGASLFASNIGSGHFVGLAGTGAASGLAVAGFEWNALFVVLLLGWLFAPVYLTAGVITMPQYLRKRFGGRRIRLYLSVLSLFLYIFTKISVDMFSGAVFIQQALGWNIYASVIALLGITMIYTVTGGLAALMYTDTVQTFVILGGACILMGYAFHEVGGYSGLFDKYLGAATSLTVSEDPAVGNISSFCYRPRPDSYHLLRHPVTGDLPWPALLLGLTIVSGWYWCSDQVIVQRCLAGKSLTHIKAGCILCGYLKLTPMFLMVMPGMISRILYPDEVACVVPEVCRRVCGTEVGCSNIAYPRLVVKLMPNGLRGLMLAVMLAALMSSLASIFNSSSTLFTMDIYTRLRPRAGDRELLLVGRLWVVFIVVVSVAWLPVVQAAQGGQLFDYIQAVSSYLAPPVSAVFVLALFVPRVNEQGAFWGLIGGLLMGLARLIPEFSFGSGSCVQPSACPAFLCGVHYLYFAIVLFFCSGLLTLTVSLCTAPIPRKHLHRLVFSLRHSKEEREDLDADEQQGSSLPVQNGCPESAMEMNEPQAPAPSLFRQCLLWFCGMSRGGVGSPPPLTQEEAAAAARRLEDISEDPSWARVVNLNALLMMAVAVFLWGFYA
Assay: SGLT2 inhibition assay, 14C-AMG uptake in CHO-K1 cells stably expressing human SGLT2
Format: cell-based
Conditions: not given
Description: as §1, §2

Going from `O=C(O)C(CCC(Oc1ccc(Cc2cc([C@@H]3O[C@H](CO)[C@@H](O)[C@H](O)[C@H]3O)ccc2Cl)cc1)C(=O)O)Oc1ccc(Cc2cc([C@@H]3O[C@H](CO)[C@@H](O)[C@H](O)[C@H]3O)ccc2Cl)cc1` (mixture of isomers) [Compound 18] to `OC[C@H]1O[C@@H](c2ccc(Cl)c(Cc3ccc(OCCOCCOc4ccc(Cc5cc([C@@H]6O[C@H](CO)[C@@H](O)[C@H](O)[C@H]6O)ccc5Cl)cc4)cc3)c2)[C@H](O)[C@@H](O)[C@@H]1O` [Compound 10, (2R,2′R,3S,3′S,4R,4′R,5R,5′R,6S,6′S)-6,6′-(((((oxybis(ethane-2,1-diyl))bis(oxy))bis(4,1-phenylene))bis(methylene))bis(4-chloro-3,1-phenylene))bis(2-(hydroxymethyl)tetrahydro-2H-pyran-3,4,5-triol)], the IC50 falls from 377 nM to 7.6 nM (50-fold). The second is the more potent here.

`OC[C@H]1O[C@H](c2ccc(Cl)c(Cc3ccc(OCc4cc(COc5ccc(Cc6cc([C@@H]7O[C@H](CO)[C@@H](O)[C@H](O)[C@H]7O)ccc6Cl)cc5)c(COc5ccc(Cc6cc([C@@H]7O[C@H](CO)[C@@H](O)[C@H](O)[C@H]7O)ccc6Cl)cc5)cc4COc4ccc(Cc5cc([C@@H]6O[C@H](CO)[C@@H](O)[C@H](O)[C@H]6O)ccc5Cl)cc4)cc3)c2)[C@H](O)[C@@H](O)[C@@H]1O` [(III), (2R,2′R,2″R,3S,3′S,3″S,4R,4′R,4″R,5R,5′R,5″R,6S,6′S,6″S)-6,6′,6″-((((((5-((4-(2-chloro-5-((2R,3R,4R,5S,6R)-3,4,5-trihydroxy-6-(hydroxymethyl)tetrahydro-2H-pyran-2-yl)benzyl)phenoxy)methyl)benzene-1,2,4-triyl)tris(methylene))tris(oxy))tris(benzene-4,1-diyl))tris(methylene))tris(4-chlorobenzene-3,1-diyl))tris(2-(hydroxymethyl)tetrahydro-2H-pyran-3,4,5-triol)] and `OC[C@H]1O[C@@H](c2ccc(Cl)c(Cc3ccc(OCc4ccc(COc5ccc(Cc6cc([C@@H]7O[C@H](CO)[C@@H](O)[C@H](O)[C@H]7O)ccc6Cl)cc5)cc4)cc3)c2)[C@H](O)[C@@H](O)[C@@H]1O` [Compound 13] are within 1.5-fold of each other in IC50: 33 nM for the first, 32 nM for the second.

Going from `OC[C@H]1O[C@@H](c2ccc(Cl)c(Cc3ccc(OCCOCCOCCOc4ccc(Cc5cc([C@@H]6O[C@H](CO)[C@@H](O)[C@H](O)[C@H]6O)ccc5Cl)cc4)cc3)c2)[C@H](O)[C@@H](O)[C@@H]1O` [Compound 11] to `OC[C@H]1O[C@@H](c2ccc(Cl)c(Cc3ccc(OCCOCCOCCOCCOc4ccc(Cc5cc([C@@H]6O[C@H](CO)[C@@H](O)[C@H](O)[C@H]6O)ccc5Cl)cc4)cc3)c2)[C@H](O)[C@@H](O)[C@@H]1O` [Compound 12], the IC50 falls from 20.8 nM to 9.6 nM (2.2-fold). The second is the more potent here.

Compared with `OC[C@H]1O[C@@H](c2ccc(Cl)c(Cc3ccc(OCc4ccc(COc5ccc(Cc6cc([C@@H]7O[C@H](CO)[C@@H](O)[C@H](O)[C@H]7O)ccc6Cl)cc5)nc4)cc3)c2)[C@H](O)[C@@H](O)[C@@H]1O` [Compound 14, (2R,2′R,3S,3′S,4R,4′R,5R,5′R,6S,6′S)-6,6′-(((((pyridine-2,5-diylbis(methylene))bis(oxy))bis(4,1-phenylene))bis(methylene))bis(4-chloro-3,1-phenylene))bis(2-(hydroxymethyl)tetrahydro-2H-pyran-3,4,5-triol) trifluoroacetate], `C[N+](C)(CCOc1ccc(Cc2cc([C@@H]3O[C@H](CO)[C@@H](O)[C@H](O)[C@H]3O)ccc2Cl)cc1)CCOc1ccc(Cc2cc([C@@H]3O[C@H](CO)[C@@H](O)[C@H](O)[C@H]3O)ccc2Cl)cc1` [Compound 15, trifluoroacetate] is 25-fold higher in IC50: 4.8 nM for the first, 121 nM for the second.

`C[N+]1(Cc2ccc(COc3ccc(Cc4cc([C@@H]5O[C@H](CO)[C@@H](O)[C@H](O)[C@H]5O)ccc4Cl)cc3)cc2)CCC(C2CC[N+](C)(Cc3ccc(COc4ccc(Cc5cc([C@@H]6O[C@H](CO)[C@@H](O)[C@H](O)[C@H]6O)ccc5Cl)cc4)cc3)CC2)CC1` (stereo partly drawn) [Compound 16, 1,1′-bis(4-((4-(2-chloro-5-((2S,3R,4R,5S,6R)-3,4,5-trihydroxy-6-(hydroxymethyl)tetrahydro-2H-pyran-2-yl)benzyl)phenoxy)methyl)benzyl)-1,1′-dimethyl-[4,4′-bipiperidine]-1,1′-diium trifluoroacetate] and `C[N+]1(Cc2ccc(COc3ccc(Cc4cc([C@@H]5O[C@H](CO)[C@@H](O)[C@H](O)[C@H]5O)ccc4Cl)cc3)cc2)CCC(CCC2CC[N+](C)(Cc3ccc(COc4ccc(Cc5cc([C@@H]6O[C@H](CO)[C@@H](O)[C@H](O)[C@H]6O)ccc5Cl)cc4)cc3)CC2)CC1` (stereo partly drawn) [Compound 17, 4,4′-(ethane-1,2-diyl)bis(1-(4-((4-(2-chloro-5-((2S,3R,4R,5S,6R)-3,4,5-trihydroxy-6-(hydroxymethyl)tetrahydro-2H-pyran-2-yl)benzyl)phenoxy)methyl)benzyl)-1-methylpiperidin-1-ium) trifluoroacetate] are within 1.5-fold of each other in IC50: 4 nM for the first, 5 nM for the second.

With `C[N+](C)(CCCc1ccc(-c2ccc(Cc3cc([C@@H]4O[C@H](CO)[C@@H](O)[C@H](O)[C@H]4O)ccc3Cl)s2)cc1)CCOc1ccc(-c2ccc(Cc3cc([C@@H]4O[C@H](CO)[C@@H](O)[C@H](O)[C@H]4O)ccc3Cl)s2)cc1` [Compound 19, N-(2-(4-(5-(2-chloro-5-((2S,3R,4R,5S,6R)-3,4,5-trihydroxy-6-(hydroxymethyl)tetrahydro-2H-pyran-2-yl)benzyl)thiophen-2-yl)phenoxy)ethyl)-3-(4-(5-(2-chloro-5-((2S,3R,4R,5S,6R)-3,4,5-trihydroxy-6-(hydroxymethyl)tetrahydro-2H-pyran-2-yl)benzyl)thiophen-2-yl)phenyl)-N,N-dimethylpropan-1-aminium trifluoroacetate] the IC50 was 24 nM.
